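All cell lines were grown in 96-well plates and treated with compound for 48 hours. TGI: total growth inhibition.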
Assays:
Assay in all cases: NCI anticancer screen, dose series, 48 h
SK-MEL-28 melanoma = test system: SK-MEL-28 melanoma
MOLT-4 leukemia = test system: MOLT-4 leukemia
SW-620 colon = test system: SW-620 colon
HL-60(TB) leukemia = test system: HL-60(TB) leukemia
UACC-257 melanoma = test system: UACC-257 melanoma
HOP-92 NSCLC = test system: HOP-92 NSCLC
COLO 205 colon = test system: COLO 205 colon
A549 NSCLC = test system: A549 NSCLC
RPMI-8226 leukemia = test system: RPMI-8226 leukemia
T-47D breast = test system: T-47D breast
HS 578T breast = test system: HS 578T breast

| SMILES | TGI (SK-MEL-28 melanoma) | TGI (MOLT-4 leukemia) | TGI (SW-620 colon) | TGI (HL-60(TB) leukemia) | TGI (UACC-257 melanoma) | TGI (HOP-92 NSCLC) | TGI (COLO 205 colon) | TGI (A549 NSCLC) | TGI (RPMI-8226 leukemia) | TGI (T-47D breast) | TGI (HS 578T breast) |
| --- | --- | --- | --- | --- | --- | --- | --- | --- | --- | --- | --- |
| COC(=O)C12Oc3ccc(-c4ccc5c(c4O)C(=O)C4=CCC(C)C(O)C4(C(=O)OC)O5)c(O)c3C(=O)C1=CCC(C)C2O (configuration not stated) | 3.51 µM | > 23 µM | 2.65 µM | 5.1 µM | 4.95 µM | 3.21 µM | 2.75 µM | 6.59 µM | – | – | – |
| Cc1ccc2c(=O)cc(-c3csc4ccccc34)[nH]c2n1 | > 100 µM | 1.09 µM | > 100 µM | 0.0258 µM | – | > 81 µM | 0.756 µM | 19.5 µM | 15 µM | > 100 µM | – |
| COc1ccc2c(c1)O[C@@H]1C(O)Oc3cc(OC)c(OC)cc3[C@]1(O)C2=O (some centres not stated) | > 100 µM | > 100 µM | > 100 µM | > 100 µM | > 100 µM | – | > 100 µM | > 100 µM | > 100 µM | > 100 µM | > 100 µM |
| COc1ccc(N[C@H](CS(=O)c2ccc(C)cc2)c2ccc(F)cc2)cc1 (some centres not stated) | > 100 µM | > 100 µM | > 100 µM | – | > 100 µM | – | > 100 µM | > 100 µM | > 100 µM | > 100 µM | – |
| Oc1ccc(Cl)cc1C1=N/C(=N\CN2CCN(C/N=C3/N=C(c4cc(Cl)ccc4O)CC(c4ccccc4)N3)CC2)NC(c2ccccc2)C1 (configuration not stated) | > 100 µM | – | > 100 µM | > 100 µM | > 100 µM | > 100 µM | > 100 µM | > 100 µM | 76.1 µM | – | > 100 µM |
| CCCCOC(=O)CNC(=O)OCCCCC#CC#CCCCCOC(=O)NCC(=O)OCCCC | – | > 100 µM | > 100 µM | > 100 µM | > 100 µM | – | > 100 µM | > 100 µM | > 100 µM | – | – |
| OC(C1CCC=NN1C(O)(C(F)(F)F)C(F)(F)F)(C(F)(F)F)C(F)(F)F (configuration not stated) | > 10 µM | > 10 µM | – | – | > 10 µM | > 10 µM | > 10 µM | > 10 µM | > 10 µM | > 10 µM | > 10 µM |
| CCC(C)[C@H](NC(=O)N[C@H](C)c1ccccc1)C(=O)OC (some centres not stated) | > 100 µM | > 100 µM | > 100 µM | > 100 µM | > 100 µM | > 100 µM | > 100 µM | > 100 µM | > 100 µM | – | – |
| O=C(c1ccc(Cl)cc1)c1ccc(OCC(=O)N2CCN(c3ccccc3)CC2)cc1 | > 100 µM | > 100 µM | > 100 µM | > 100 µM | > 100 µM | > 100 µM | > 100 µM | > 100 µM | > 100 µM | – | – |
| S=C1c2ccccc2NC(=NC2CCCC2)C2CSCN12 (configuration not stated) | > 100 µM | > 100 µM | > 100 µM | – | > 100 µM | – | > 100 µM | > 100 µM | > 100 µM | > 100 µM | > 100 µM |
| c1ccc2c(-c3cnc(-c4c[nH]c5ccccc45)cn3)c[nH]c2c1 | > 100 µM | – | 47.9 µM | – | > 100 µM | > 100 µM | > 100 µM | > 100 µM | > 100 µM | > 100 µM | > 100 µM |
| COC1C(O)CC(OC2C(C)OC(Oc3cc(O)c4c(O)c5c(cc4c3)C[C@@H]([C@H](OC)C(=O)[C@@H](O)[C@@H](C)O)[C@H](OC3CC(OC4CC(OC6CC(C)(O)C(O)C(C)O6)C(O)C(C)O4)C(O)C(C)O3)C5=O)CC2OC(C)=O)OC1C (some centres not stated) | > 100 µM | > 100 µM | > 100 µM | > 100 µM | – | – | > 100 µM | > 100 µM | > 100 µM | > 100 µM | > 100 µM |
| CC(=O)C1CC(C)=CCC12C(=O)Nc1ccccc12 (configuration not stated) | > 100 µM | > 100 µM | > 100 µM | > 100 µM | – | > 100 µM | > 100 µM | > 100 µM | > 100 µM | – | – |
| CCC(CCCN)Nc1cc(OC)cc2cccnc12 (configuration not stated) | > 100 µM | – | > 100 µM | 51.1 µM | 62.8 µM | > 100 µM | > 100 µM | > 100 µM | – | – | > 100 µM |
| CN(C)C(=S)N/N=C\C=N/NC(=S)N(C)C | > 100 µM | – | > 100 µM | – | > 100 µM | > 100 µM | > 100 µM | > 100 µM | > 100 µM | > 100 µM | > 23.4 µM |
| COc1cccc2cc(C)c(C(=O)c3ccccc3)nc12 | > 100 µM | > 100 µM | > 100 µM | – | > 100 µM | – | > 100 µM | > 100 µM | > 100 µM | – | – |
| CCN1CC(C)Cn2c(=O)[nH]c3cc(Br)cc1c32 (configuration not stated) | > 100 µM | 81.9 µM | > 100 µM | 37.5 µM | > 100 µM | – | > 100 µM | > 100 µM | > 100 µM | > 100 µM | 74.3 µM |

From PubChem BioAssay (NCI)
